Measured values as given in ChEMBL document CHEMBL1129292, “Theoretical study of inhibition of adenosine deaminase by (8R)-coformycin and (8R)-deoxycoformycin” (J Med Chem, 1996).

Biological target: T1, Adenosine deaminase (Homo sapiens, UniProt P00813)
T1 sequence (P00813 whole entry): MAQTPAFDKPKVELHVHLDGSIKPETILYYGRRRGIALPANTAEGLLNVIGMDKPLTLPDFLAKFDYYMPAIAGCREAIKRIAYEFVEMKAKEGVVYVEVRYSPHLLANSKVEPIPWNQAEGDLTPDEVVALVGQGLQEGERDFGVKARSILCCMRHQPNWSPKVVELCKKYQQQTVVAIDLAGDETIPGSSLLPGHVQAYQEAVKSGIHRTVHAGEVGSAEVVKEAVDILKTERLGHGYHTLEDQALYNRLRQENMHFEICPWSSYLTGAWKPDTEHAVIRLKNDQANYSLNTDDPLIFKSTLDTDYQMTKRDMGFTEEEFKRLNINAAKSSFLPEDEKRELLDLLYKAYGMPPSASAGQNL
Experiment: Binding affinity towards Adenosine deaminase

| Structure (SMILES) | Ki [pM] |
| --- | --- |
| OCC1OC(n2cnc3c2N=CCC[C@H]3O)[C@@H](O)[C@H]1O (single isomer, unassigned) [CONFORMYCIN] | 10 |
| OCC1OC(n2cnc3c2N=CCC[C@H]3O)C[C@H]1O (single isomer, unassigned) | 2.5 |
